From patent US8877244B2, “Stabilized pesticidal granules” (priority 2006, dated 2014) come the findings set out here.

Data set [1] concerns large crabgrass (Digitaria sanguinalis). As to the kind of experiment: Biology comparison: control of large crabgrass by stored granule samples. The format is in vivo. The note with it: after storage for 1 year at room temperature or 19 days at 50° C. From the text:
Callisto® (a commercially available liquid formulation containing 4 lbs/gal of the active ingredient 2-(2′-nitro-4′-methylsulphonylbenzoyl)-1,3-cyclohexanedione acid) (Syngenta Crop Protection, Inc.) is sprayed onto fertilizer granules (Scotts® Turf Builder® Lawn Fertilizer 29-3-4 (with added nutrients)) (The Scotts Co.) in an amount sufficient to achieve an average a.i. loading of 0.082% by weight. Sample 2 is a control sample that is freshly prepared and has not been stored. Sample 3 is stored for 1 year at ambient room temperature. Sample 4 is stored under accelerated conditions (19 days at 50° C.).
A spray solution of Example 1 is sprayed onto fertilizer granules (Scotts® Turf Builder® Lawn Fertilizer 29-3-4 (with added nutrients)) (The Scotts Co.) in an amount sufficient to achieve an average a.i. loading of 0.082% by weight. Sample 5 is stored for 1 year at ambient room temperature. Sample 6 is stored under accelerated conditions (19 days at 50° C.).
All samples are applied to large crabgrass (Digitaria sanguinalis) at 224 g ai/ha, and control assessed 10 days after treatment. Sample 1 is an untreated control.

Data set [2] in a line: Stability comparison: accelerated temperature storage of coated granules, a.i. extracted and assayed by HPLC. Conditions: storage at 38° C. and 50° C. In kind it is physicochemical. As to the method: The materials prepared in examples 1-7 are tested for stability as follows: • 1) After obtaining the coated granules according to the procedures given above, material is divided up into samples by using a standard “Riffler”, which is used to generate statistically representative samples from a large batch. • 2) The individual “riffled” samples are put on accelerated temperature storage (in ovens) at 38° C. and 50° C. • 3) Samples are pulled from each temperature at regular intervals, and assayed for 2-(2′-nitro-4′-methylsulphonylbenzoyl)-1,3-cyclohexanedione acid concentration (weight %). Commonly 2-3 samples are pulled from each temperature, each week. • 4) The pulled samples are analyzed for stability by extraction of the a.i. material from the granules and assayed by HPLC.

Turning to “2-(2′-nitro-4′-methylsulphonylbenzoyl)-1,3-cyclohexanedione copper chelate”, the “control of large crabgrass compared with the unchelated (acid) form on fertiliser granules” value in data set [1] is recorded as “improved control of large crabgrass”. Besides, the “stability on granules compared with the unchelated (acid) form” value in data set [2] is listed as “improved stability”.
